Laboratory results reported in the NIST ThermoML archive (doi:10.1016/j.jct.2007.05.004).

Experiments:
[1] = xn = mol fraction of the nth substance listed; settings: 101 kPa, Liquid
[2] = 101 kPa, Liquid

CO [methanol] + CCOC(C)=O
[1], x1 = 1
Settings	mass density [kg/m3]	viscosity [mPa·s]
293.15 K	791.9	0.585
298.15 K	787.2	0.545
303.15 K	782.48	0.508

CO [methanol]
[2]
Settings	mass density [kg/m3]	viscosity [mPa·s]
293.15 K	791.9	0.585
298.15 K	787.2	0.545
303.15 K	782.48	0.508

CO [methanol] + O
[1]
Settings	mass density, 293.15 K [kg/m3]	mass density, 298.15 K [kg/m3]	mass density, 303.15 K [kg/m3]	viscosity, 293.15 K [mPa·s]	viscosity, 298.15 K [mPa·s]	viscosity, 303.15 K [mPa·s]
x2 = 0	791.9	787.2	782.48	0.585	0.545	0.508
x2 = 0.049	800.06	795.47	790.84	0.655	0.607	0.563
x2 = 0.0993	808.62	804.11	799.56	0.735	0.677	0.627
x2 = 0.1973	826.11	821.73	817.31	0.9	0.821	0.751
x2 = 0.2983	845.03	840.79	836.5	1.086	0.987	0.889
x2 = 0.3985	864.67	860.59	856.45	1.287	1.15	1.032
x2 = 0.5003	885.57	881.69	877.32	1.481	1.309	1.164
x2 = 0.5994	906.58	902.96	899.26	1.673	1.463	1.289
x2 = 0.6997	928.45	925.21	921.89	1.793	1.554	1.342
x2 = 0.7986	949.8	947.17	944.42	1.789	1.542	1.342
x2 = 0.8999	971.59	969.84	967.9	1.522	1.317	1.147
x2 = 0.9512	983.86	982.53	980.97	1.274	1.121	0.996
